# According to patent US20240368139A1, “NOVEL MODULATORS OF EHMT1 AND EHMT2 AND THERAPEUTIC USE THEREOF” (Tango Therapeutics, Inc., priority 2021, published 2024):
# Assays:
# human EHMT1 982-1266 = molecular target: T1, human EHMT1 982-1266 (Homo sapiens, UniProt Q9H9B1); assay: EHMT1 enzyme assay on histone peptide substrate (3H-SAM SPA); conditions: EHMT1 IC50, recombinant human EHMT1 982-1266, histone peptide substrate
# T1 sequence (Q9H9B1 982-1266): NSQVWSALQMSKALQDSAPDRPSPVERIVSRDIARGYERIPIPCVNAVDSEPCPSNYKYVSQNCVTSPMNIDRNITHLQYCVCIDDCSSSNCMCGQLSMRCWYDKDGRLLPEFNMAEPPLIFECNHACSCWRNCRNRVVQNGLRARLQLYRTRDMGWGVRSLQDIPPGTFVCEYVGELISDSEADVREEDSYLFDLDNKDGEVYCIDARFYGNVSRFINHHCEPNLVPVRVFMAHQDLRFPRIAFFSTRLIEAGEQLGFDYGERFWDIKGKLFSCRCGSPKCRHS
# H3K9me2 in HCT116 cells = assay: HCT116 H3K9me2 in-cell western assay; type: cell-based; conditions: Homo sapiens, HCT-116, 72 h, HCT116 cells, 72 hours incubation; read-out: H3K9me2 ICW IC50
# Summary of the method: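 H3K9me2 signal (800 nm) was normalized to DRAQ5 DNA stain (700 nm) in an in-cell western. Cells were fixed with paraformaldehyde and probed overnight at 4° C with primary antibody.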
# hERG potassium channels = hERG potassium channels (Homo sapiens, UniProt Q12809); assay: In vitro hERG assay (SyncroPatch whole-cell recording); conditions: hERG IC50, SyncroPatch, room temperature
# human EHMT2 913-1193 = molecular target: T2, human EHMT2 913-1193 (Homo sapiens, UniProt Q96KQ7); assay: EHMT2 enzyme assay on histone peptide substrate (3H-SAM SPA); conditions: EHMT2 IC50, recombinant human EHMT2 913-1193, histone peptide substrate
# T2 sequence (Q96KQ7 913-1193): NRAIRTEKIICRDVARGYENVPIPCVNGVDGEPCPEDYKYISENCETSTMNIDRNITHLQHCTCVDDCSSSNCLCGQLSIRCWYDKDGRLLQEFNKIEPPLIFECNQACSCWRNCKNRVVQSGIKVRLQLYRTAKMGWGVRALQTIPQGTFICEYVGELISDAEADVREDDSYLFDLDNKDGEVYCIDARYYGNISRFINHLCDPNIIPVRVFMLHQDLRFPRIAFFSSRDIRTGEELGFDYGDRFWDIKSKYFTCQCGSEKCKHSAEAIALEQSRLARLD
# hERG potassium channels, sequence (Q12809 whole entry): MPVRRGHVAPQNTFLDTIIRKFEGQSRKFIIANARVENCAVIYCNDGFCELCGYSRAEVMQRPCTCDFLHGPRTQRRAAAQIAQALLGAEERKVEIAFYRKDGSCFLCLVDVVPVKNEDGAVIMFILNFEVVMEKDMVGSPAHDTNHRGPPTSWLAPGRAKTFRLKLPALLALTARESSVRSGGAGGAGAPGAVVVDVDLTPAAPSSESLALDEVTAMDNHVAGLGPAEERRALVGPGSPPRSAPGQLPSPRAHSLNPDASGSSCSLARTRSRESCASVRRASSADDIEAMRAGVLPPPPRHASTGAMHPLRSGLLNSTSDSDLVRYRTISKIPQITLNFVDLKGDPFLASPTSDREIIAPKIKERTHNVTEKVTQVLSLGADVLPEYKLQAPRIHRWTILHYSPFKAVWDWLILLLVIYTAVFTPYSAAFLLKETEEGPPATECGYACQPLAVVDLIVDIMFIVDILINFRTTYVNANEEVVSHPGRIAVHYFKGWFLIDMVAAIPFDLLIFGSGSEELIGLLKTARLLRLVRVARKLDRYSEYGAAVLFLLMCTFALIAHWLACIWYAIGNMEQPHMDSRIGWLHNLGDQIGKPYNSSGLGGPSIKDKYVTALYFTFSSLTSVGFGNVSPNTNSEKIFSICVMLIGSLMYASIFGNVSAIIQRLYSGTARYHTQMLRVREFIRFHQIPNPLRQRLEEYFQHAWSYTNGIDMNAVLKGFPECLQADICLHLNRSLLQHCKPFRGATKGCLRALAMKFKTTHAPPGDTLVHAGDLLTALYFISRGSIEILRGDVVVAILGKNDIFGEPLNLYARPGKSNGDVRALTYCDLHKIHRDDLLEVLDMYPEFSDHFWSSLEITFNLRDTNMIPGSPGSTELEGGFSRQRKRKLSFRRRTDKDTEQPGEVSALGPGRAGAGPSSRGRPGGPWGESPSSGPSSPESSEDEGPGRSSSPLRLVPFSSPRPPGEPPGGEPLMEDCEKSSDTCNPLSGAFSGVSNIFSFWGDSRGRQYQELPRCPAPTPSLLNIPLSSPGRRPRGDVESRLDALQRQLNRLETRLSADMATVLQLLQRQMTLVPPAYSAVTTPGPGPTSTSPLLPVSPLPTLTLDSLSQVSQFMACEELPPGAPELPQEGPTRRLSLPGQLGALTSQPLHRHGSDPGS
IC50 (human EHMT1 982-1266) [nM],IC50 (H3K9me2 in HCT116 cells) [nM],IC50 (human EHMT2 913-1193) [nM],Compound,IC50 (hERG potassium channels) [nM]
< 100,< 100,< 100,"CNc1cc(C)nc(Nc2cc3c(c(C4=CCNCCC4)c2)OCCO3)n1 [Compound 130, N4,6-dimethyl-N2-[5-(2,3,4,7-tetrahydro-1H-azepin-5-yl)-2,3-dihydro-1,4-benzodioxin-7-yl]pyrimidine-2,4-diamine]",2000 to 5000
< 100,< 100,100 to 500,"CNc1cc(C)nc(Nc2cc3c(c(C4=CCN(C)CCC4)c2)OCCO3)n1 [Compound 131, N4,6-dimethyl-N2-[5-(1-methyl-2,3,4,7-tetrahydroazepin-5-yl)-2,3-dihydro-1,4-benzodioxin-7-yl]pyrimidine-2,4-diamine]",5000 to 10000
< 100,< 100,< 100,"CNc1cc(C)nc(Nc2cc3c(c(C4=CCNCCC4)c2)OCO3)n1 [Compound 137, N4,6-dimethyl-N2-[7-(2,3,4,7-tetrahydro-1H-azepin-5-yl)-1,3-benzodioxol-5-yl]pyrimidine-2,4-diamine]",5000 to 10000
< 100,100 to 500,< 100,"CNc1cc(C)nc(Nc2cc3c(c(C4=CCNCCC4)c2)OC(F)(F)O3)n1 [Compound 142, N2-[2,2-difluoro-7-(2,3,4,7-tetrahydro-1H-azepin-5-yl)-1,3-benzodioxol-5-yl]-N4,6-dimethyl-pyrimidine-2,4-diamine]",< 2000
100 to 500,100 to 500,100 to 500,"CNc1cc(C)nc(Nc2cc3c(c(C4=CCNCCC4)c2)OCCO3)c1 [Compound 144, N4,6-dimethyl-N2-[5-(2,3,4,7-tetrahydro-1H-azepin-5-yl)-2,3-dihydro-1,4-benzodioxin-7-yl]pyridine-2,4-diamine]",> 10000
100 to 500,100 to 500,100 to 500,"CNc1cc(C)nc(Nc2cc3c(c([C@H]4C[C@H]5CNC[C@H]5C4)c2)OCC3)n1 [Compound 157, N2-[7-(1,2,3,3a,4,5,6,6a-octahydrocyclopenta[c]pyrrol-5-yl)-2,3-dihydrobenzofuran-5-yl]-N4,6-dimethyl-pyrimidine-2,4-diamine]",> 10000
< 100,< 100,< 100,"CNc1cc(C)nc(Nc2cc3c(c(C4=CCNCCC4)c2Cl)OCO3)n1 [Compound 160, N2-[6-chloro-7-(2,3,4,7-tetrahydro-1H-azepin-5-yl)-1,3-benzodioxol-5-yl]-N4,6-dimethyl-pyrimidine-2,4-diamine]",5000 to 10000
< 100,< 100,< 100,"CNc1cc(C)nc(Nc2cc3c(c(C4=CCNCCC4)c2Cl)OCCO3)n1 [Compound 166, N2-[6-chloro-5-(2,3,4,7-tetrahydro-1H-azepin-5-yl)-2,3-dihydro-1,4-benzodioxin-7-yl]-N4,6-dimethyl-pyrimidine-2,4-diamine]",< 2000
< 100,< 100,< 100,CNc1cc(C)nc(Nc2cc3c(c(C4=CCNCCC4)c2F)OCC32CC2)n1 [Compound 172],2000 to 5000
< 100,< 100,< 100,CNc1cc(C)nc(Nc2cc3c(c(C4=CCNCCC4)c2Cl)OCCC3)n1 [Compound 175],5000 to 10000
< 100,< 100,< 100,CNc1cc(C)nc(Nc2cc3c(c(C4=CCN(C)CCC4)c2Cl)OCCC3)n1 [Compound 176],2000 to 5000
< 100,< 100,< 100,"CNc1cc(C)nc(Nc2cc3c(c(C4=CCNCC(O)C4)c2F)OCC3)n1 (centres unmarked) [Compound 179, 5-[6-fluoro-5-[[4-methyl-6-(methylamino)pyrimidin-2-yl]amino]-2,3-dihydrobenzofuran-7-yl]-2,3,4,7-tetrahydro-1H-azepin-3-ol]",> 10000
< 100,< 100,< 100,CNc1cc(C)nc(Nc2cc3c(c(C4=CCN(C)CC(O)C4)c2F)OCC3)n1 (centres unmarked) [Compound 180],> 10000
< 100,< 100,100 to 500,CNc1cc(C)nc(Nc2c(F)c3c(c(C4=CCNCCC4)c2F)OCC3)n1 [Compound 187],> 10000
< 100,< 100,< 100,"CNc1cc(C)nc(Nc2cc3c(c(C4=CCNCCC4)c2C)OCC3)n1 [Compound 188, N4,6-dimethyl-N2-[6-methyl-7-(2,3,4,7-tetrahydro-1H-azepin-5-yl)-2,3-dihydrobenzofuran-5-yl]pyrimidine-2,4-diamine]",> 10000
< 100,< 100,< 100,"CNc1cc(C)nc(Nc2cc3c(c(C4=CCNCCC4)c2Cl)OCC3)n1 [Compound 189, N2-[6-chloro-7-(2,3,4,7-tetrahydro-1H-azepin-5-yl)-2,3-dihydrobenzofuran-5-yl]-N4,6-dimethyl-pyrimidine-2,4-diamine]",> 10000

IC50 (human EHMT1 982-1266) [nM],IC50 (H3K9me2 in HCT116 cells) [nM],IC50 (human EHMT2 913-1193) [nM],Compound,IC50 (hERG potassium channels) [nM]
< 100,< 100,< 100,CNc1cc(C)nc(Nc2cc3c(c(C4=CCN(C)CCC4)c2F)OCCC3)n1 [Compound 190],5000 to 10000
< 100,< 100,< 100,CNc1cc(C)nc(Nc2cc3c(c(C4=CCNCCC4)c2F)OCCO3)n1 [Compound 191],2000 to 5000
< 100,< 100,< 100,"CNc1cc(C)nc(Nc2cc3c(c(C4=CCNCCC4)c2F)OCCC3)n1 [Compound 193, N2-[7-fluoro-8-(2,3,4,7-tetrahydro-1H-azepin-5-yl)chroman-6-yl]-N4,6-dimethyl-pyrimidine-2,4-diamine]",5000 to 10000
< 100,< 100,< 100,CCN1CC=C(c2c(F)c(Nc3nc(C)cc(NC)n3)cc3c2OCC3)CCC1 [Compound 201],5000 to 10000
< 100,< 100,< 100,"COCCNc1cc(C)nc(Nc2cc3c(c(C4=CCNCCC4)c2F)OCC3)n1 [Compound 289, N2-[6-fluoro-7-(2,3,4,7-tetrahydro-1H-azepin-5-yl)-2,3-dihydrobenzofuran-5-yl]-N4-(2-methoxyethyl)-6-methyl-pyrimidine-2,4-diamine]",> 10000
< 100,< 100,100 to 500,COCCNc1cc(C)nc(Nc2cc3c(c(C4=CCN(C)CCC4)c2F)OCC3)n1 [Compound 290],> 10000
< 100,100 to 500,100 to 500,Cc1cc(NCC(F)(F)F)nc(Nc2cc3c(c(C4=CCNCCC4)c2)OCC3)n1 [Compound 322],2000 to 5000
100 to 500,100 to 500,100 to 500,CNc1cc(C(C)C)nc(Nc2cc3c(c(C4=CCN(C)CCC4)c2)OCC3)n1 [Compound 323],2000 to 5000
100 to 500,100 to 500,100 to 500,COCCNc1cc(C)nc(Nc2cc3c(c(C4=CCN(C)CCC4)c2)OCC3)n1 [Compound 324],5000 to 10000
< 100,100 to 500,100 to 500,Cc1cc(NC2CCC2)nc(Nc2cc3c(c(C4=CCNCCC4)c2)OCC3)n1 [Compound 325],2000 to 5000
< 100,< 100,< 100,CNc1cc(C(C)C)nc(Nc2cc3c(c(C4=CCNCCC4)c2)OCC3)n1 [Compound 326],2000 to 5000
< 100,< 100,< 100,COCCNc1cc(C)nc(Nc2cc3c(c(C4=CCNCCC4)c2)OCC3)n1 [Compound 327],> 10000
< 100,< 100,< 100,CNc1cc(C)nc(Nc2cc3c(c(C4=CCNCCC4)c2F)OCC3)c1 [Compound 328],> 10000
100 to 500,100 to 500,500 to 2000,CNc1cc(C)nc(Nc2cc3c(c(C4C[C@@H]5CN(C)C[C@@H]5C4)c2)OCCO3)n1 (some centres unmarked) [Compound 329],> 10000
< 100,< 100,< 100,CNc1ccnc(Nc2cc3c(c(C4=CCNCCC4)c2)OCC3)n1 [Compound 330],> 10000
< 100,< 100,100 to 500,CNc1ccnc(Nc2cc3c(c(C4=CCN(C)CCC4)c2)OCC3)n1 [Compound 331],> 10000
